This assay deals with T1, Glucocorticoid receptor (Homo sapiens, UniProt P04150).
T1 sequence (P04150 whole entry): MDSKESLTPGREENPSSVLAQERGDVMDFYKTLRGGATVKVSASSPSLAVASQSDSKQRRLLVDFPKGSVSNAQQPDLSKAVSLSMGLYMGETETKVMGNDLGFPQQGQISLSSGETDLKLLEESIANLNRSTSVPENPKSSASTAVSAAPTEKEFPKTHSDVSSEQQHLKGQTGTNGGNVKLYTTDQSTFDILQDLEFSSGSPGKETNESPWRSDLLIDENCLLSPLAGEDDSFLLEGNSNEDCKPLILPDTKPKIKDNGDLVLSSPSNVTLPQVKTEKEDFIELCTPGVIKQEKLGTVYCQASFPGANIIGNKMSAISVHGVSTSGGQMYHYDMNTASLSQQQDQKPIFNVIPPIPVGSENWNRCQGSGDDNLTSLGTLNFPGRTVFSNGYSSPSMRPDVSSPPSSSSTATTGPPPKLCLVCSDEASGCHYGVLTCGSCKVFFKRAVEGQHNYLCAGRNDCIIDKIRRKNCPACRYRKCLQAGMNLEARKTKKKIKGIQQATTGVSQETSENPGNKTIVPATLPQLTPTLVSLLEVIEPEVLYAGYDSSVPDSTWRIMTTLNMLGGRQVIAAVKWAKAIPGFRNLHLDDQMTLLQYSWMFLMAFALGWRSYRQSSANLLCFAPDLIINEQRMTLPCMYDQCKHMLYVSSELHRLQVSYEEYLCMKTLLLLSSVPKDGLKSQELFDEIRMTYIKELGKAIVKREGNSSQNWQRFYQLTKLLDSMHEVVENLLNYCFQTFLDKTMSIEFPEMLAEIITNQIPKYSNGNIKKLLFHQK
Nature of the assay: GRE Antagonist Assay. The source says:
The generated cell line allows for identification of compounds showing antagonist activity at the human glucocorticoid receptor (GR) via reduction of LacZ gene expression. Dexamethasone-activated GR binds to the Glucocorticoid Response Element (GRE) in the promoter of the LacZ gene and transcription is initiated.

Take `CC(C)[C@H](NC(=O)C(C)(F)F)[C@H](Oc1ccc2c(cnn2-c2ccc(=O)n(C)c2)c1)c1ccccc1` [US10196374, Example 1]: inhibition was half-maximal at 158 nM (IC50).
